Publication PMC12428554, “Anti-HIV and Antimicrobial Activity of 7-Hydrazino-8-hydroxyquinoline-Based Aromatic Hydrazones” (International Journal of Molecular Sciences, 2025)
≈ marks a conversion by molar mass, not a printed value. Where “and” joins values, the source holds several entries; their conditions need not be identical. Identical values can stand only once.

Tested on: not listed separately
Assay: MTT cytotoxicity assay
Format: cell-based
Details: human, Huh-7.5 cells
Experimental: Huh7.5 cells were grown in the DMEM/F12 (2:1) medium supplemented with 10% FBS (BioSera, Cholet, France), 2 mM L-glutamine, 100 U/mL penicillin, and 100 µg/mL streptomycin in the presence of 5% CO2 at 37 °C. Cells were re-seeded every three days at a ratio of 1:3 or 1:5. Stock solutions were diluted in DMSO (BioReagent of molecular biology grade, Sigma, St. Louis, MO, USA), and the final DMSO concentration was 1%. After 24 h (30–40% monolayer), the solutions of the studied compounds diluted at different concentrations were introduced to the culture medium. After incubation at 37 °C in 5% CO2 for 48 h, a freshly prepared solution of thiazolyl blue tetrazolium bromide at a final concentration of 0.4 mg/mL was added to each well of the plate. Incubation was performed at +37 °C for 2 h. The medium containing unreacted MTT was removed via aspiration. The formed formazan dye was dissolved in 100 µL of isopropanol added to each well of the plate. The result of the analysis was evaluated using a Tecan Spark multimode microplate reader (Tecan Group Ltd., Männedorf, Switzerland) via absorbance at 544 nm.

Row | Compound | CC50 at 48 h
1 | Oc1c(N/N=C/c2ccccc2)ccc2cccnc12 [Compound I, 7-(2-Benzylidenohydrazinyl)-8-hydroxyquinoline] | 50.5 ± 2.5 µM
2 | O=[N+]([O-])c1ccc(/C=N/Nc2ccc3cccnc3c2O)cc1 [II, 7-(4-Nitrobenzylidenohydrazinyl)-8-hydroxyquinoline] | 123 ± 13.2 µM
3 | O=[N+]([O-])c1cccc(/C=N/Nc2ccc3cccnc3c2O)c1 [III, 7-(3-Nitrobenzylidenohydrazinyl)-8-hydroxyquinoline] | 38 ± 9.1 µM
4 | COc1ccc(/C=N/Nc2ccc3cccnc3c2O)cc1 [IV, 7-(4-Methoxybenzylidenohydrazinyl)-8-hydroxyquinoline] | 47 ± 3.2 µM
5 | Oc1c(N/N=C/c2ccc(Br)c(Br)c2)ccc2cccnc12 [V, 7-(3,4-Dibromobenzylidenohydrazinyl)-8-hydroxyquinoline] | 120 ± 7.5 µM
6 | Oc1c(N/N=C/c2ccc(F)cc2)ccc2cccnc12 [VI, 7-(4-Fluorobenzylidenohydrazinyl)-8-hydroxyquinoline] | 45.5 ± 3.6 µM

Tested on: S. aureus ATCC 29213
Assay: MIC by twofold serial dilution, S. aureus
Format: cell-based
Details: Staphylococcus aureus, ATCC29213, 24 h, 37 °C, read-out: MIC (Mean ± SE) S. aureus ATCC 29213
Experimental: Candida albicans ATCC 10231, Pseudomonas aeruginosa ATCC 27853, and Staphylococcus aureus ATCC 29213 strains were obtained from the American Type Culture Collection (ATCC; Rockville, MD, USA). The subculture and inoculum preparation were performed according to CLSI M27-A3 for C. albicans on yeast extract peptone dextrose (YPD) agar (HiMedia, Mumbai, Maharashtra, India) and RPMI-1640 medium (PanEco, Moscow, Russia) with MOPS (3-(N-morpholino) propanesulfonic acid, >99.5%; PanEco, Moscow, Russia), and M7-A11 for P. aeruginosa and S. aureus on Mueller-Hinton agar (MHA; HiMedia, Mumbai, Maharashtra, India) and Mueller-Hinton broth (MHB; HiMedia, Mumbai, Maharashtra, India). The stock cell concentrations of fungus and bacteria were 1 × 10^6 and 1 × 10^8 cells/mL, respectively. A working suspension of C. albicans (5.0 × 10^2 cells/mL) was prepared by two-step dilution of the broth concentration with the RPMI-1640 medium. Assay suspensions of P. aeruginosa and S. aureus (1.0 × 10^6 cells/mL) were prepared by diluting the concentration with Mueller-Hinton broth (HiMedia, Mumbai, Maharashtra, India). Amphotericin B (Sigma-Aldrich, Burlington, MA, USA) and gentamicin (Sigma-Aldrich, Burlington, MA, USA) were used as secondary pharmaceutical standards.
The minimum inhibitory concentration (MIC) was determined by the twofold serial dilution method, according to CLSI M27-A3 [33] and M07-A11 [34], in three independent experiments with four replicates each. Amphotericin B was used as a positive control for fungus; gentamicin was used as a positive control for bacteria. Stock solutions except gentamicin were prepared in DMSO at a concentration of 6400 μg/mL. Gentanicin was solubilized in sterile water at a concentration of 1280 μg/mL. Stock solutions of the tested substances were diluted to the final concentrations in the assay medium and 100 μL of each sample was added to the wells of 96-well plates, and then 100 μL of inoculum was added. Rows 11 and 12 were left for the negative control (medium with inoculum without the drug) and sterility control. The plates were incubated for 24 h at 35 °C in the case of C. albicans and at 37 °C in the case of P. aeruginosa and S. aureus. The tested concentration for gentamicin ranged from 0.0625 to 32 μg/mL; for other compounds, it ranged from 0.125 to 64 μg/mL. The MIC value was determined using spectrophotometer. The MIC was taken to be the lowest drug concentration that caused complete inhibition of microorganism growth compared to the control. The final MIC values were reported as the means with standard error (SE). Standard errors for µg/mL values less than 0.01 were excluded; standard errors for µM values less than 0.1 were excluded (Table 3).

Row | Compound | MIC
7 | Oc1c(N/N=C/c2ccccc2)ccc2cccnc12 [Compound I, 7-(2-Benzylidenohydrazinyl)-8-hydroxyquinoline] | 52 µg/mL and 198 µM
8 | O=[N+]([O-])c1ccc(/C=N/Nc2ccc3cccnc3c2O)cc1 [II, 7-(4-Nitrobenzylidenohydrazinyl)-8-hydroxyquinoline] | 14 ± 1.9 µg/mL (≈ 45.4 µM)
9 | O=[N+]([O-])c1cccc(/C=N/Nc2ccc3cccnc3c2O)c1 [III, 7-(3-Nitrobenzylidenohydrazinyl)-8-hydroxyquinoline] | 18 ± 4.8 µg/mL (≈ 58.4 µM)
10 | COc1ccc(/C=N/Nc2ccc3cccnc3c2O)cc1 [IV, 7-(4-Methoxybenzylidenohydrazinyl)-8-hydroxyquinoline] | 64 µg/mL and 218 µM
11 | Oc1c(N/N=C/c2ccc(Br)c(Br)c2)ccc2cccnc12 [V, 7-(3,4-Dibromobenzylidenohydrazinyl)-8-hydroxyquinoline] | 36.3 ± 10.3 µg/mL (≈ 86.2 µM)
12 | Oc1c(N/N=C/c2ccc(F)cc2)ccc2cccnc12 [VI, 7-(4-Fluorobenzylidenohydrazinyl)-8-hydroxyquinoline] | ≥ 64 µg/mL and ≥ 228 µM

Tested on: not listed separately
Assay: Neutral red (NR) cytotoxicity assay
Format: cell-based
Details: human, Huh-7.5 cells
Experimental: Huh7.5 cells were grown in the DMEM/F12 (2:1) medium supplemented with 10% FBS (BioSera, Cholet, France), 2 mM L-glutamine, 100 U/mL penicillin, and 100 µg/mL streptomycin in the presence of 5% CO2 at 37 °C. Cells were re-seeded every three days at a ratio of 1:3 or 1:5.
The 40 µg/mL neutral red working solution was prepared, incubated overnight at the same temperature as the cells, and then centrifuged for 10 min at 600× g to remove any precipitated dye crystals. After the incubation with compounds tested at 37 °C in 5% CO2 for 48 h, cells were washed with PBS and then 100 µL of neutral red medium was added to each well of the plate. The plate was incubated for 2 h at the appropriate culture conditions, then the neutral red medium was removed and the cells were washed with PBS. After that 150 µL neutral red destain solution per well was added (50% ethanol, 49% deionized water, 1% glacial acetic acid (Sigma-Aldrich, Burlington, MA, USA). After the neutral red was extracted from the cells and formed a homogeneous solution, the result of the analysis was evaluated using a Tecan Spark multimode microplate reader via absorbance at 540 nm.

Row | Compound | CC50 at 48 h
13 | Oc1c(N/N=C/c2ccccc2)ccc2cccnc12 [Compound I, 7-(2-Benzylidenohydrazinyl)-8-hydroxyquinoline] | 14.5 ± 3.5 µM
14 | O=[N+]([O-])c1ccc(/C=N/Nc2ccc3cccnc3c2O)cc1 [II, 7-(4-Nitrobenzylidenohydrazinyl)-8-hydroxyquinoline] | 21 ± 4 µM
15 | O=[N+]([O-])c1cccc(/C=N/Nc2ccc3cccnc3c2O)c1 [III, 7-(3-Nitrobenzylidenohydrazinyl)-8-hydroxyquinoline] | 7.1 ± 0.7 µM
16 | COc1ccc(/C=N/Nc2ccc3cccnc3c2O)cc1 [IV, 7-(4-Methoxybenzylidenohydrazinyl)-8-hydroxyquinoline] | 9.1 ± 1.5 µM
17 | Oc1c(N/N=C/c2ccc(Br)c(Br)c2)ccc2cccnc12 [V, 7-(3,4-Dibromobenzylidenohydrazinyl)-8-hydroxyquinoline] | 8.6 ± 0.1 µM
18 | Oc1c(N/N=C/c2ccc(F)cc2)ccc2cccnc12 [VI, 7-(4-Fluorobenzylidenohydrazinyl)-8-hydroxyquinoline] | 6.7 ± 0.2 µM

Target: T1, Ku70–DNA complex (Homo sapiens, UniProt P12956)
T1 construct: made in house; host or cells: Escherichia coli
Assay: EMSA of Ku70/Ku80–DNA complex formation
Format: binding
Details: 12.8 nM Ku heterodimer, 4 nM labelled 40 mer DNA duplex, read-out: IC50, inhibition of Ku70–DNA complex formation
Experimental: A bicistronic construct was used for the simultaneous expression of the Ku70 and Ku80 proteins in E. coli. Proteins were chromatographically purified with a 6His-tag at the N terminus of the Ku80 subunit. Recombinant Ku protein was produced in bacterial cell culture, purified, and its DNA-binding activity was characterized.
Isolation was performed using affinity chromatography on Ni^2+-NTA resin. The presence of Ku and impurities was monitored using SDS-PAGE and Western blot analysis. The testing of substances as potential inhibitors of the interaction of the Ku heterodimer with DNA was carried out using the gel inhibition assay.
The testing of substances as potential inhibitors of the interaction of the Ku heterodimer with DNA was carried out using the EMSA. […] The result was visualized by radioautography on a Typhoon FLA 9500 PhosphorImager (GE Healthcare Technologies, Chicago, IL, USA). The counting of radioautograms was performed using QuantityOne 4.6.6 software (Bio-Rad, Hercules, CA, USA). The calculation of IC50 parameters was carried out by Prism 8.0.1 software (GraphPad Software, San-Diego, CA, USA).

T1 sequence (P12956 whole entry): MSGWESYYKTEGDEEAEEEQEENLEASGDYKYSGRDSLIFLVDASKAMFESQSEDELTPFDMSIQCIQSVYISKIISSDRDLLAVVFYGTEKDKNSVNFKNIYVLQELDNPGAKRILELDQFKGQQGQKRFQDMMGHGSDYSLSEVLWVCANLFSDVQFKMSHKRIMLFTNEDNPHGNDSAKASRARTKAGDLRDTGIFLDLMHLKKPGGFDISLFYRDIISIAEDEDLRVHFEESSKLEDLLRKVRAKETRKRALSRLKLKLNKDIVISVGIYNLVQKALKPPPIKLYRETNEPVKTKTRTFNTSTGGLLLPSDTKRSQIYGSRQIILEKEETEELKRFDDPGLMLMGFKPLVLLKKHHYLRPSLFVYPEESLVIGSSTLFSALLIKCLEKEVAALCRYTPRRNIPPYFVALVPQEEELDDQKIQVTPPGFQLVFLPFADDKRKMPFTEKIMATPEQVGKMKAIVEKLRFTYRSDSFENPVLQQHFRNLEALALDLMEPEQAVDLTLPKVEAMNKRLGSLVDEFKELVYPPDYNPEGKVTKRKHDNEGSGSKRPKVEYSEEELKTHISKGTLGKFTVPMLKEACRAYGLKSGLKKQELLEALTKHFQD
T1 sequence (P13010 whole entry partner): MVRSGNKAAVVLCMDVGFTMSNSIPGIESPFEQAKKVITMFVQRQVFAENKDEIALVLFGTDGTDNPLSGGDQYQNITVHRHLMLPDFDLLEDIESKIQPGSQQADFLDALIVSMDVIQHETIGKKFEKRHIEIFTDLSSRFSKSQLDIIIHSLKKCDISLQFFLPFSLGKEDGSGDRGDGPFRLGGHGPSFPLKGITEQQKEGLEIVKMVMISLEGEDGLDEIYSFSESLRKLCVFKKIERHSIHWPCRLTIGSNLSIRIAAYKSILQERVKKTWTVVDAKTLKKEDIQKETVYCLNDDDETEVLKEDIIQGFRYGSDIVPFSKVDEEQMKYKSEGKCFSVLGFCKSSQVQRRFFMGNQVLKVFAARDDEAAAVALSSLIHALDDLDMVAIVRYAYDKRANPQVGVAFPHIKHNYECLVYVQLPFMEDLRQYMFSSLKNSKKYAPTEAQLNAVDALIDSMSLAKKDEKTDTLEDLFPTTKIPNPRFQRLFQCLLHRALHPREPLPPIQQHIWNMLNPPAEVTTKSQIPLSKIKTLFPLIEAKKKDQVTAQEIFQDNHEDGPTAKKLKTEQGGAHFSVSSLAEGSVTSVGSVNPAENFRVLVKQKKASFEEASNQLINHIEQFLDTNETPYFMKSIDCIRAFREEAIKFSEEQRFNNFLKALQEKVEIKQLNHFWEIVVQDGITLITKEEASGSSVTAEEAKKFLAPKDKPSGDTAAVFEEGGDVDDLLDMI

Row | Compound | IC50
19 | Oc1c(N/N=C/c2ccccc2)ccc2cccnc12 [Compound I, 7-(2-Benzylidenohydrazinyl)-8-hydroxyquinoline] | 40 ± 10 µM
20 | O=[N+]([O-])c1ccc(/C=N/Nc2ccc3cccnc3c2O)cc1 [II, 7-(4-Nitrobenzylidenohydrazinyl)-8-hydroxyquinoline] | 50 ± 20 µM
21 | O=[N+]([O-])c1cccc(/C=N/Nc2ccc3cccnc3c2O)c1 [III, 7-(3-Nitrobenzylidenohydrazinyl)-8-hydroxyquinoline] | 60 ± 20 µM
22 | COc1ccc(/C=N/Nc2ccc3cccnc3c2O)cc1 [IV, 7-(4-Methoxybenzylidenohydrazinyl)-8-hydroxyquinoline] | 80 ± 30 µM
23 | Oc1c(N/N=C/c2ccc(Br)c(Br)c2)ccc2cccnc12 [V, 7-(3,4-Dibromobenzylidenohydrazinyl)-8-hydroxyquinoline] | 25 ± 8 µM
24 | Oc1c(N/N=C/c2ccc(F)cc2)ccc2cccnc12 [VI, 7-(4-Fluorobenzylidenohydrazinyl)-8-hydroxyquinoline] | > 250 µM
